Laboratory results as given in ChEMBL document CHEMBL1157538, “Discovery of a potent, selective, and orally bioavailable c-Met inhibitor: 1-(2-hydroxy-2-methylpropyl)-N-(5-(7-methoxyquinolin-4-yloxy)pyridin-2-yl)-5-methyl-3-oxo-2-phenyl-2,3-dihydro-1H-pyrazole-4-carboxamide (AMG 458)” (J Med Chem, 2008).

Assays:
[1] = Intrinsic clearance in BALB/c mouse liver microsome; format: ADME; settings: liver microsomes
[2] = Intrinsic clearance in human liver microsome; format: ADME; settings: liver microsomes
[3] = Half life in rat; format: ADME, organism-based; settings: in vivo
[4] = Intrinsic clearance in Sprague-Dawley rat liver microsome; format: ADME; settings: liver microsomes
Mus musculus = experiment: Inhibition of HGF-mediated c-Met phosphorylation in BALB/c mouse liver at 30 mg/kg, po after 6 hrs; format: functional; design: scale not given: the % may be the effect or the level left
[5] = Oral bioavailability in rat; format: ADME, organism-based; settings: in vivo
[6] = Clearance in rat; format: ADME, organism-based; settings: in vivo

SMILES	microsomal CLint [1] [µL/min/mg]	microsomal CLint [2] [µL/min/mg]	half-life [3] [h]	microsomal CLint [4] [µL/min/mg]	Activity (Mus musculus) [%]	bioavailability [5] [%]	clearance [6] [mL/min/kg]
COc1ccc2c(Oc3ccc(NC(=O)c4c(C)n(C[C@@H](C)O)n(-c5ccccc5)c4=O)cc3F)ccnc2c1	< 45	< 55	1.9	< 60	98	> 50	< 3.33
COc1ccc2c(Oc3ccc(NC(=O)c4c(C)n(C[C@H](C)O)n(-c5ccccc5)c4=O)cc3F)ccnc2c1	< 45	< 55	1.9	< 60	–	> 50	< 3.33
